Entries after “also recorded” stand apart in the source; their conditions may differ.
What was measured:
[1] = tested on: chicken chorioallantoic membrane (CAM); assay: Characterization of angiogenesis in vivo by CAM assay; conditions: 1 mM in PBS from filter paper circles, embryonic day 5, 21 hrs and 42 hrs
Method: Characterization of Angiogenesis In Vivo by CAM Assay.
In vivo assessment of the anti-angiogenic potential of PAs and peptide was performed using the chicken chorioallantoic membrane (CAM). In this well-established CAM assay, angiogenesis of the extraembryonic allantois was measured at several time points after treatment with PAs or peptide. Fertilized chicken eggs (Sunnyside Hatchery) were received and cultured in a temperature controlled, humidified egg incubator. On embryonic day 3, eggs were cracked into 100 mm sterile petri dishes without breaking the yolk sac and were transferred to a water-jacketed humidified CO2 incubator set to 37° C. On embryonic day 5, 5 μL of treatment (PA, peptide, or scrambled PA dissolved in PBS at 1 mM) or control (PBS) solutions were deposited onto autoclaved filter paper circles ¼″ in diameter. Solution-soaked filter paper circles were placed on top of the CAM and digital images were captured using a Nikon stereomicroscope. Vessel density was quantified by counting the number of vessels intersecting the circumference of filter paper circles and is expressed relative to the initial time point. ANOVA with a Dunnett's Multiple Comparisons post-test of each treatment condition against control was performed using GraphPad Prism software. A minimum of n=5 samples was analyzed for each treatment condition at each time point.

HUVECs [2] = assay: Assessment of cell migration on fibronectin (live-cell imaging); format: cell-based, human; conditions: HUVECs on FN-coated glass, bFGF stimulus, 10 μM
Method: Assessment of Cell Migration on Fibronectin.
Fibronectin from human plasma was coated onto tissue culture-treated 4-chamber glass-bottom petri dishes (In Vitro Scientific) at 7 μg/cm2 as previously described. Subconfluent HUVECs were incubated for 2 hr in starvation media before detaching with 0.05% trypsin/EDTA. Cells were then spun down to remove trypsin/EDTA, re-suspended in starvation media, and plated onto glass-bottom petri dishes at a concentration of 4000 cells per chamber. After cells attached (approximately 1 hr at 37° C.)., the media was aspirated and replaced with starvation media containing […] basic fibroblast growth factor (bFGF) and 10 μM MMPA, MMPep, or Scram PA. Live-cell imaging was performed on a Nikon BioStation IM at 37° C., and cell migration was quantified manually using a plugin to track the location of the cell nucleus every 30 mins in ImageJ software. ANOVA with a Dunnett's Multiple Comparisons post-test of each treatment condition against control was performed using GraphPad Prism software. For control, MMPA, MMPep, and ScramPA, n=56, 54, 31, and 42 respectively.

HUVECs [3] = assay: Assessment of cell adhesion on fibronectin (PicoGreen); format: cell-based, human; conditions: concentration not given
Method: Assessment of Cell Adhesion on Fibronectin.
The effect of peptide and PAs on HUVEC adhesion was assessed. Fibronectin from human plasma (Sigma) was dissolved in sterile MilliQ water and was added to tissue culture-treated 96 well plates at 5 μg/cm2, which were then left to dry overnight at room temperature in a sterile laminar flow hood. Coated plates were stored at 4° C. and warmed to 37° C. prior to use. Subconfluent HUVECs were incubated for 2 hr in starvation media (EndoGRO basal media from Millipore supplemented with 0.5% fetal bovine serum and 1× penicillin-streptomycin from Gibco) before detaching with 0.05% trypsin/EDTA. Cells were then spun down to remove trypsin/EDTA and were re-suspended in PBS containing peptide or PA molecules. Cells were incubated in treatment for 30 min at 37° C. and then plated at 15,000 cells/well. After 45 mins, wells were washed once with PBS to detach loosely adhered cells. A PicoGreen assay (Invitrogen) was used to quantify number of cells in each well. Cell counts were normalized to that obtained in wells with no treatment. Statistical analysis was performed in GraphPad Prism software using one-way analysis of variance (ANOVA) with a Bonferroni's Multiple Comparisons post-test comparing all pairs of columns. For all treatment groups, n=4.

[4] = Critical assembly concentration determination by nile red incorporation; format: physicochemical; conditions: in PBS, nile red blueshift in peak emission
Method: Critical Assembly Concentration Determination by Nile Red Incorporation.
MMPA, MMPep, or ScramPA solutions ranging from 100 nM to 200 μM concentration in PBS were made from stock solutions and NR dissolved in ethanol was diluted 200-fold into solutions to a final concentration of 500 nM. Using a NanoLogHJ spectrofluorometer, samples were excited at 550 nm and spectra were obtained between from 580 nm-750 nm. Blueshift was plotted against concentration to determine the critical assembly concentration.

HUVECs [5] = assay: Flow cytometry and confocal microscopy to assess PA binding to HUVECs; format: cell-based, human
Method: Flow Cytometry and Confocal Microscopy to Assess PA Binding.
Stock fluorescent PA and peptide solutions were made by dissolving FITC-labeled molecules in PBS at a concentration of 200 μM (assuming peptide content of 90%). Stock fluorescent solutions were then mixed in equal volumes with 1 mM stock solutions of non-fluorescent PA or peptide solution and allowed to sit overnight at room temperature to make working solutions. Subconfluent human umbilical vein endothelial cells (HUVECs) were incubated for 2 hr in starvation media before detaching with 0.05% trypsin/EDTA. Cells were then spun down to remove trypsin/EDTA and were re-suspended in starvation media at 250,000/mL. Working peptide and PA solutions then added to cell suspensions such that the final concentration corresponded to 10 μM non-fluorescent molecule. After incubating at 37° C. for 30 mins, cells were spun down and resuspended in Hank's balanced salt solution (HBSS) twice. Fluorescence signal of each cell was quantified using a LSRFortessa cell analyzer (BD Biosciences). Cells were also plated on poly-d-lysine coated glass coverslips, fixed with 4% paraformaldehyde, and embedded in mounting media for imaging using an AIR laser scanning confocal microscope (Nikon). Machine parameters were kept constant for all samples in both confocal microscopy and flow cytometry experiments.

HUVECs [6] = assay: Assay of angiogenesis in vitro by tube formation; format: cell-based, human; conditions: HUVECs on matrigel, imaged 5 hrs after addition of treatment
Method: Assay of Angiogenesis In Vitro by Tube Formation.
Wells of a 96-well plate were coated with ECMatrix solution, and 5×10^3 HUVECs were plated in triplicate wells in a volume of 50 μL of endothelial growth medium (EGM) containing 0.5% FBS with 50 ng/mL bFGF for 2 hours. MMPA, MMPep, ScramPA treatments at respective dosages were added to the wells for 5 hours. Tube formation was evaluated by phase-contrast microscopy using an Olympus IX-70 microscope (100× magnification) connected to a Diagnostic Instruments Spot RT Camera. Experiments were repeated independently three times.

MMPep: 15-residue peptide: maspin g-helix sequence plus two residues on either end, EDESTGLEKIEKQLN, synthesized as previously reported [reference compound]
angiogenesis in CAM (vessels intersecting filter paper circumference, normalized to initial count) vs PBS control [1]: present but is statistically insignificant
cell motility / migration vs PBS control (HUVECs [2]): statistically less migratory (P<0.05); also recorded: significantly decrease cell motility over untreated controls
average cell migration speed (HUVECs [2]; measured over at least 2 hrs and up to 8 hrs): 0.30 μm/min
HUVEC adhesion to FN surface vs untreated controls (HUVECs [3]): do not show this effect; also recorded: unable to improve cell adhesion over untreated controls
critical aggregation assembly concentration (CAC) [4]: > 200 µM
median FITC intensity per cell (HUVECs [5]; FACS, HUVECs, FITC-labeled molecule mixed with non-fluorescent molecule, 10 μM, 30 mins 37° C.): 2.6 times that of untreated control
cell binding (FACS, HUVEC fluorescence) (HUVECs [5]; HUVECs treated with FITC-labeled PAs and peptide): binds to cells significantly less effectively than PA nanostructures
inhibition of tube formation (HUVECs [6]): slightly effective at greater than 10 μM; also recorded: partially inhibited tube formation at higher concentrations (10 μM)

— patent US9556232B2, “Anti-angiogenic molecules, nanostructures and uses thereof” (Northwestern University, priority 2013, dated 2017)
